Measurements: US8592181B2, “Brazzein variant having higher sweetness and method for preparing multi-variant” (Chung-Ang University Industry-Academy Cooperation Foundation, priority 2009, dated 2013)

Tested on: human sense of taste
Test: Sweetness measured by human sense of taste (20 trained subjects, minimum concentration at which sweetness is first sensed)
Assay type: in vivo
Settings: for Multiples of increased sweetness to minor-type brazzein: relative to minor-type brazzein; for Minimum stimulation level in which one senses sweetness for first time: 20 trained subjects; for Sweetness ratios of sucrose (1 g/100 ml) to primary brazzein variants (minor-type brazzein: 2000) / Sweetness ratios of sucrose (1 g/100 ml) to brazzein multi-variants: relative to 1 g/100 ml sucrose threshold
Experimental: Since the recombinant brazzein according to the present invention is not a sucrose-based compound having a cyclic ring, the sweetness of the recombinant brazzein was not measured using a saccharometer. Therefore, the activity of the recombinant brazzein was measured using the human sense of taste. Sugar content measurement was performed on 20 subjects who were trained to feel substantially the same minimum concentration of sucrose in which they could sense sweetness using a sucrose solution. That is, a concentration of each brazzein variant in which the subjects could sense sweetness for the first time was measured. Also, a sweetness ratio of the sucrose solution to the wild-type brazzein was 1 g/100 ml, which was a minimum stimulation level in which the subjects could sense sweetness. Also, a sweetness ratio of the minor-type brazzein protein to the wild-type brazzein was 500 μg/100 ml, which was a minimum stimulation level in which the subjects could sense sweetness. Therefore, the sweetness was calculated using the sweetness ratios (That is, 1/0.0005=2000 for the minor-type brazzein).
Also, the brazzein multi-variants were measured for activity (sweetness) in the same manner as in Example 3-1.

Molecule	Multiples of increased sweetness to minor-type brazzein (primary brazzein variants)	Minimum stimulation level in which one senses sweetness for first time (primary brazzein variants)	Sweetness ratios of sucrose (1 g/100 ml) to primary brazzein variants (minor-type brazzein: 2000)	Multiples of increased sweetness to minor-type brazzein (brazzein multi-variants)	Sweetness ratios of sucrose (1 g/100 ml) to brazzein multi-variants	Minimum stimulation level in which the subjects could sense sweetness (sucrose solution) [g/100 ml]
E35H: primary brazzein variant: Glu at position 35 of minor-type brazzein substituted with His (DKCKKVYENYPVSKCQLANQCNYDCKLRKHARSGHCFYDEKRNLQCICDYCEY; Brazzein(E35H)) [Brazzein E35H]	0.08	6,000 μg/100 ml	167	–	–	–
E35D_E40R: secondary brazzein variant of minor-type brazzein with substitutions E35D and E40R (DKCKKVYENYPVSKCQLANQCNYDCKLRKHAKSGDCFYDRKRNLQCICDYCEY; Brazzein(E35D_E40R)) [Brazzein E35D_E40R]	–	–	–	6	12,000	–
H30R_E40D: secondary brazzein variant of minor-type brazzein with substitutions H30R and E40D (DKCKKVYENYPVSKCQLANQCNYDCKLRKRAKSGECFYDDKRNLQCICDYCEY; Brazzein(H30R_E40D)) [Brazzein H30R_E40D]	–	–	–	4	8,000	–
E35R: primary brazzein variant: Glu at position 35 of minor-type brazzein substituted with Arg (DKCKKVYENYPVSKCQLANQCNYDCKLRKHARSGRCFYDEKRNLQCICDYCEY; Brazzein(E35R)) [Brazzein E35R]	0.08	6,000 μg/100 ml	167	–	–	–
K29D: primary brazzein variant: Lys at position 29 of minor-type brazzein substituted with Asp (DKCKKVYENYPVSKCQLANQCNYDCKLRDHARSGECFYDEKRNLQCICDYCEY; Brazzein(K29D)) [Brazzein K29D]	0.05	10,000 μg/100 ml	100	–	–	–
E35D_E40D: secondary brazzein variant of minor-type brazzein with substitutions E35D and E40D (DKCKKVYENYPVSKCQLANQCNYDCKLRKHAKSGDCFYDDKRNLQCICDYCEY; Brazzein(E35D_E40D)) [Brazzein E35D_E40D]	–	–	–	5	10,000	–
R42H: primary brazzein variant: Arg at position 42 of minor-type brazzein substituted with His (DKCKKVYENYPVSKCQLANQCNYDCKLRKHARSGECFYDEKHNLQCICDYCEY; Brazzein(R42H)) [Brazzein R42H]	0.16	3,000 μg/100 ml	334	–	–	–
OC[C@H]1O[C@@](CO)(O[C@H]2O[C@H](CO)[C@@H](O)[C@H](O)[C@H]2O)[C@@H](O)[C@@H]1O [sucrose, reference compound]	–	–	–	–	–	1
K29A: primary brazzein variant: Lys at position 29 of minor-type brazzein substituted with Ala (DKCKKVYENYPVSKCQLANQCNYDCKLRAHARSGECFYDEKRNLQCICDYCEY; Brazzein(K29A)) [Brazzein K29A]	0.05	10,000 μg/100 ml	100	–	–	–
R42D: primary brazzein variant: Arg at position 42 of minor-type brazzein substituted with Asp (DKCKKVYENYPVSKCQLANQCNYDCKLRKHARSGECFYDEKDNLQCICDYCEY; Brazzein(R42D)) [Brazzein R42D]	0.05	10,000 μg/100 ml	100	–	–	–
K29E: primary brazzein variant: Lys at position 29 of minor-type brazzein substituted with Glu (DKCKKVYENYPVSKCQLANQCNYDCKLREHARSGECFYDEKRNLQCICDYCEY; Brazzein(K29E)) [Brazzein K29E]	0.05	10,000 μg/100 ml	100	–	–	–
K5E: primary brazzein variant: Lys at position 5 of minor-type brazzein substituted with Glu (DKCKEVYENYPVSKCQLANQCNYDCKLRKHARSGECFYDEKRNLQCICDYCEY; Brazzein(K5E)) [Brazzein K5E]	0.08	6,000 μg/100 ml	167	–	–	–
R32E: primary brazzein variant: Arg at position 32 of minor-type brazzein substituted with Glu (DKCKKVYENYPVSKCQLANQCNYDCKLRKHAESGECFYDEKRNLQCICDYCEY; Brazzein(R32E)) [Brazzein R32E]	0.05	10,000 μg/100 ml	100	–	–	–
H30D: primary brazzein variant: His at position 30 of minor-type brazzein substituted with Asp (DKCKKVYENYPVSKCQLANQCNYDCKLRKDARSGECFYDEKRNLQCICDYCEY; Brazzein(H30D)) [Brazzein H30D]	0.16	3,000 μg/100 ml	334	–	–	–
E40H: primary brazzein variant: Glu at position 40 of minor-type brazzein substituted with His (DKCKKVYENYPVSKCQLANQCNYDCKLRKHARSGECFYDHKRNLQCICDYCEY; Brazzein(E40H)) [Brazzein E40H]	2	250 μg/100 ml	4,000	–	–	–
R42E: primary brazzein variant: Arg at position 42 of minor-type brazzein substituted with Glu (DKCKKVYENYPVSKCQLANQCNYDCKLRKHARSGECFYDEKENLQCICDYCEY; Brazzein(R42E)) [Brazzein R42E]	0.05	10,000 μg/100 ml	100	–	–	–
R42A: primary brazzein variant: Arg at position 42 of minor-type brazzein substituted with Ala (DKCKKVYENYPVSKCQLANQCNYDCKLRKHARSGECFYDEKANLQCICDYCEY; Brazzein(R42A)) [Brazzein R42A]	0.05	10,000 μg/100 ml	100	–	–	–
